In patent publication US9872858B2, “Treatment of degenerations and light-induced damage to the retina” (BIOCODEX, priority 2014, dated 2018):
Read-outs that look alike come from different tables or passages of the source.

Legend:
[1] = test system: patients suffering from neovascular (exudative) AMD; conditions: cited from earlier work
[2] = Animals behavior and body weight; type: in vivo, Sprague-Dawley albino male rats; conditions: etifoxine 12.5-50 mg/kg i.p. once a day D-7 to D0
Description: The rats were kept under observation for 3 weeks after their arrival for acclimatization. Meanwhile the animals were observed daily for verifying the absence of a disease.
II.1. Animals Behavior and Body Weight

[3] = test system: blue light-induced retinal degenerations or damages in rats; assay: Thickness of the outer nuclear layer (histology, AUC) after blue light-induced retinal degeneration; type: in vivo, Sprague-Dawley albino male rats
Description: The inventors have studied the protective effect of etifoxine in respect of the blue light-induced retinal degenerations or damages in rats. This animal model is particularly representative, in addition to light-induced retinal damage, of age-related macular degeneration (AMD) and retinitis pigmentosa (see e.g Feng et al. (2012) International Journal of Ophthalmology 5:151-157).
(§1) Induction was performed by exposure during 6 hours to a blue fluorescent light of 400 nm-540 nm wavelength in individual cages. The rats were kept in the dark for 36 hours prior to the induction and 24 hours after the induction, before returning to normal lighting conditions.
After ERG (day 14), the animals were euthanized with an overdose of pentobarbital, according to European recommendations, both eyes were enucleated, fixed with Bouin Hollande solution and then included in paraffin. Sections of 5 to 7 μm of thickness were made along the vertical meridian then stained using Masson's trichrome. The vertical meridian includes the optic nerve. […] The area under the curve (AUC) was then calculated for each retina.
A one-factor ANOVA test was applied to the average AUCs of the thickness of the outer nuclear layer. The effect of the products was determined using a Turkey's multiple comparison test; each treated group was compared to vehicle group. Differences were considered significant for p values less than 0.05.
To determine if the treatment allows to preserve the structure of photoreceptors, the thickness of the outer nuclear layer was evaluated 14 days other exposure to blue light. The area under the curve (AUC) of the thickness of the outer nuclear layer was calculated for each eye and both AUCs were averaged for each rat.

[4] = test system: blue light-induced retinal degenerations or damages in rats; assay: Scotopic electroretinogram (amplitude of wave a) after blue light-induced retinal degeneration; type: in vivo, Sprague-Dawley albino male rats
Description: This animal model is particularly representative, in addition to light-induced retinal damage, of age-related macular degeneration (AMD) and retinitis pigmentosa (see e.g Feng et al. (2012) International Journal of Ophthalmology 5:151-157).
72 Sprague-Dawley albino male rats obtained from Janvier were used for the study. When received, the rats were approximately 7 weeks old and weighed 180-200 g,
as §1
A scotopic electroretinogram (ERG) was performed by using the electrophysiological RETI-animal® (Roland Consult) system before the first administration (base) then on days 7 and 14 on both eyes of animals accustomed to the darkness. The animals were anesthetized with an intramuscular injection of a mixture of ketamine/xylazine. 15 minutes before the measurement, 1 drop of Mydriatictum® (0.5% tropicamide) was instilled to induce dilatation of the pupil. The amplitudes of wave a and wave b were measured for each eye and expressed as a percentage of the base amplitudes.
The ERG parameters are: • Gansfeld Q450C • Color: maximum white • Maximum intensity: 2.6 cd.s/m^2 (0 dB); duration: 0.24 ms; number of flashes: 1 • Filter: 50 Hz • Impedance threshold: 90 kΩ
A two-factor ANOVA test was applied to the average amplitudes of the wave a of both eyes for each measurement point. The effect of the products was determined using the Turkey's multiple comparison test; each group was compared to other groups. Differences were considered significant for p values less than 0.05.
Electroretinograms (ERG) allow to measure the amplitude of wave a, which results from the photo-activated hyperpolarization of photoreceptors. Thus, a reduction of the amplitude of wave a is an indicator of a retinal damage or degeneration associated with exposure to blue light.

[5] = test system: light-induced degeneration of the retina in rats; conditions: intraperitoneal injection (Ranchon et al. 2001); cited from earlier work

## ranibizumab: a Fab fragment of an anti-VEGF-A monoclonal antibody
[1]; 0.3 mg monthly intravitreal injections
  Visual acuity improvement: +8.1 letters
[1]; 0.5 mg monthly intravitreal injections
  Visual acuity improvement: +10.7 letters

## CCNC1=Nc2ccc(Cl)cc2C(C)(c2ccccc2)O1.Cl (centres unmarked) [EFX, 6-chloro-2-ethylamino-4-methyl-4-phenyl-4H-[3,1]benzoxazine hydrochloride]
[2]
  Clinical signs after administration: No unexpected clinical signs
[3]; EFX 12.5 mg/kg i.p. once a day D-7 to D0, 14 days after induction, p = 0.04 vs vehicle group
  Thickness of the outer nuclear layer (AUC, mean of both eyes ± standard deviation): 170 ± 72 (p = 0.04 comparing to vehicle group) μm × mm
[3]; EFX 25 mg/kg i.p. once a day D-7 to D0, 14 days after induction, p = 0.0002 vs vehicle group
  Thickness of the outer nuclear layer (AUC, mean of both eyes ± standard deviation): 200 ± 73 (p = 0.0002 comparing to vehicle group) μm × mm
[3]; EFX 50 mg/kg i.p. once a day D-7 to D0, 14 days after induction, p = 0.035 vs vehicle group
  Thickness of the outer nuclear layer (AUC, mean of both eyes ± standard deviation): 172 ± 61 (p = 0.035 comparing to vehicle group) μm × mm
[3]; regardless of the dose (12.5, 25, 50 mg/kg), 14 days after induction
  Protection of the outer nuclear layer from damages or degenerations induced by blue light, compared to the vehicle: protects significantly
[4]; 12.5, 25 and 50 mg/kg, day 7 p<0.0001 all doses, day 14 p=0,016 for 12.5 mg/kg, p<0.0001 for 25 and 50 mg/kg
  Protection of amplitude of wave a compared to the vehicle group: significant dose-dependent protection
[4]; EFX 12.5 mg/kg i.p. once a day D-7 to D0, 7 days after induction
  Amplitude of wave a (mean ± standard deviation), Day 7: 136 ± 89 μV
[4]; EFX 12.5 mg/kg i.p. once a day D-7 to D0, 14 days after induction
  Amplitude of wave a (mean ± standard deviation), Day 14: 134 ± 135 μV
[4]; EFX 25 mg/kg i.p. once a day D-7 to D0, 7 days after induction
  Amplitude of wave a (mean ± standard deviation), Day 7: 210 ± 116 μV
[4]; EFX 50 mg/kg i.p. once a day D-7 to D0, 7 days after induction
  Amplitude of wave a (mean ± standard deviation), Day 7: 260 ± 87 μV

## CC(C)(C)[N+]([O-])=Cc1ccccc1 [PBN, Phenyl-N-tert-butylnitrone]
[3]; PBN 50 mg/kg i.p. at D0 around induction, 14 days after induction, p < 0.0001 vs NaCl 0.9% group
  Thickness of the outer nuclear layer (AUC, mean of both eyes ± standard deviation): 247 ± 44 (p < 0.0001 comparing to NaCl 0.9% group) μm × mm
[3]; PBN 50 mg/kg, positive control, in contrast to 0.9% NaCl
  Protection of the outer nuclear layer from damages or degenerations induced by blue light: protects the outer nuclear layer
[4]; PBN 50 mg/kg i.p. at D0, 0.5 h before, 2 h and 4 h during and just after induction, 7 days after induction
  Amplitude of wave a (mean ± standard deviation), Day 7: 334 ± 137 μV
[4]; PBN 50 mg/kg i.p. at D0 around induction, 7 days after induction, percentage of base amplitude
  Average relative amplitude of wave a, Day 7: 71 ± 29%
[4]; PBN 50 mg/kg i.p. at D0 around induction, 14 days after induction
  Amplitude of wave a (mean ± standard deviation), Day 14: 301 ± 187 μV
[4]; PBN 50 mg/kg i.p. at D0 around induction, 14 days after induction, percentage of base amplitude
  Average relative amplitude of wave a, Day 14: 62 ± 38%
[4]; PBN 50 mg/kg, days 7 and 14, p<0.0001
  Amplitudes of wave a compared to the NaCl 0.9% group: significantly (p<0.0001) higher
[5]
  Action in light-induced degeneration of the retina: protective action
